Tests used:
Assay in all cases: relative viability (nuclei count vs DMSO), 5 days (fraction); higher = more cells survive
[1] = compound: CC(C)(C)c1cc(NC(=O)Nc2ccc(-c3cn4c(n3)sc3cc(OCCN5CCOCC5)ccc34)cc2)no1 [Quizartinib] + O=C(CCCCCCC(=O)Nc1ccccc1)NO [Vorinostat] (partner 1 µM)
Procedure, shortened: (§1)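 A single step with final 0.05% Triton X-100, 1% formaldehyde and 1 ug/ml Hoechst fixed the cells and stained nuclei 5 days after treatment. Lung cancer cell lines in 1536-well plates had been treated by pin tool the day after seeding with one drug alone or a fixed anchor-drug dose plus five library-drug doses (not always all listed) in √10 steps, and nuclei were counted on 4× images. Relative viability is the ratio of nuclei in treated wells to nuclei in vehicle wells, taken as the median of duplicate plates.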

[2] = compound: CC(C)(C)c1cc(NC(=O)Nc2ccc(-c3cn4c(n3)sc3cc(OCCN5CCOCC5)ccc34)cc2)no1 [Quizartinib] + COc1cccc2cc(-c3nc([C@H]4CC[C@H](C(=O)O)CC4)n4ncnc(N)c34)[nH]c12 [OSI-027] (partner 0.5 µM)
Procedure, shortened: as §1

[3] = compound: COCC[n+]1c2c(n(Cc3cnccn3)c1C)C(=O)c1ccccc1C2=O [YM155] + CC1(C)CCC(c2ccc(Cl)cc2)=C(CN2CCN(c3ccc(C(=O)NS(=O)(=O)c4ccc(N[C@H](CCN5CCOCC5)CSc5ccccc5)c(S(=O)(=O)C(F)(F)F)c4)cc3)CC2)C1 [Navitoclax] (partner 0.5 µM)
Procedure, shortened: as §1

[4] = compound: COCC[n+]1c2c(n(Cc3cnccn3)c1C)C(=O)c1ccccc1C2=O [YM155] + C[C@]1(O)C[C@@H](c2nc(-c3ccc4ccc(-c5ccccc5)nc4c3)c3c(N)nccn32)C1 [Linsitinib] (partner 1 µM)
Procedure, shortened: as §1

Cell Line	relative viability ([1]; first compound 0.001 µM)	relative viability ([1]; first compound 0.003162 µM)	relative viability ([1]; first compound 0.01 µM)	relative viability ([1]; first compound 0.03162 µM)	relative viability ([1]; first compound 0.1 µM)	relative viability ([2]; first compound 0.001 µM)	relative viability ([2]; first compound 0.003162 µM)	relative viability ([2]; first compound 0.01 µM)	relative viability ([2]; first compound 0.03162 µM)	relative viability ([2]; first compound 0.1 µM)	relative viability ([3]; first compound 0.002 µM)	relative viability ([3]; first compound 0.006325 µM)	relative viability ([3]; first compound 0.02 µM)	relative viability ([3]; first compound 0.06325 µM)	relative viability ([4]; first compound 0.002 µM)	relative viability ([4]; first compound 0.006325 µM)	relative viability ([4]; first compound 0.02 µM)	relative viability ([4]; first compound 0.06325 µM)
LU99A	0.373	0.51	0.449	0.481	0.502	0.282	0.3	0.282	0.319	0.327	0.753	0.729	0.756	0.677	0.581	0.503	0.554	0.545
LC-2-ad	0.603	0.688	0.733	0.681	0.694	0.842	0.866	0.757	–	0.626	0.414	0.479	0.456	0.509	0.806	0.957	0.814	0.753
A-427	0.609	0.757	0.818	0.767	0.874	–	0.446	0.437	0.484	0.529	0.984	0.88	0.91	0.997	1.06	1.22	1.12	1.09
NCI-H2009	0.673	0.697	0.652	0.696	0.761	0.546	0.614	0.62	0.664	0.724	1.16	1.13	1.06	0.567	1.2	1.25	1.13	0.217
LCLC-97TM1	0.573	0.52	0.685	0.677	0.767	0.567	0.466	0.538	0.588	0.563	0.319	0.394	0.391	0.376	0.2	0.183	0.161	0.212
BEN	0.533	0.532	0.565	0.56	0.602	0.259	0.326	0.325	0.282	0.284	0.0838	0.0769	0.0788	0.0609	0.922	1.03	0.878	0.929
EMC-BAC-2	0.433	0.486	0.288	–	0.544	0.348	0.397	0.364	–	0.413	1.12	1.24	1.09	1.13	0.85	0.83	0.597	0.818
NCI-H520	–	0.607	0.768	0.61	0.573	0.245	0.231	0.292	0.233	0.272	1.15	0.991	1.07	1.03	0.895	1.13	1.04	0.957
NCI-H1355	0.631	0.607	0.627	0.647	0.647	0.361	0.449	0.389	0.377	0.4	0.947	1.08	1.08	1.04	0.821	0.832	0.948	0.875
HCC-366	0.307	0.381	0.302	0.243	0.386	0.705	0.866	0.796	0.831	0.747	1.08	1.04	0.989	0.843	0.683	0.61	0.659	0.676
NCI-H1915	0.55	0.442	0.49	0.551	0.562	0.602	0.642	0.562	0.683	0.606	0.804	0.79	0.792	0.822	1.12	1.05	1.1	1.01
HARA	0.468	0.47	0.553	0.677	0.426	–	0.523	0.368	0.423	0.325	1.11	1.14	1.13	1.14	0.902	0.946	1.04	0.931
PC-3 [JPC-3]	0.758	0.889	0.55	0.596	0.912	0.692	0.747	0.782	0.757	0.698	0.867	0.847	0.871	0.887	0.995	0.927	0.995	0.995
LXF-289	0.645	0.752	0.782	0.726	0.738	0.743	0.791	0.797	0.89	0.877	0.94	0.949	0.957	0.87	0.97	0.86	0.999	0.828
NCI-H2126	0.621	0.789	0.711	0.816	0.841	0.66	0.753	0.671	0.621	0.693	0.866	0.877	0.871	0.875	0.704	0.722	0.704	0.771
NCI-H1755	0.723	0.69	0.796	0.946	0.717	0.591	0.645	0.79	0.793	0.701	0.996	0.981	0.949	1.06	0.972	1.03	0.974	0.976
HCC-827	0.797	0.881	–	0.724	0.886	0.749	0.77	0.945	0.798	0.79	1.03	1.11	1.01	0.992	0.954	1.01	0.928	0.941
NCI-H838	0.68	0.662	0.794	0.707	0.683	0.346	0.4	0.299	0.38	0.375	1.04	1.21	1.22	0.791	0.935	0.997	1.03	0.485
NCI-H3122	0.89	0.799	0.915	1	0.994	–	0.947	1.08	–	0.877	0.969	1.04	1.02	1.05	0.97	1	0.993	1.09
HCC-78	0.453	0.44	0.445	0.419	0.445	0.398	0.375	0.357	0.325	0.377	0.79	0.717	0.767	0.942	0.615	0.494	0.486	0.598
NCI-H322M	0.867	0.842	0.836	0.878	0.903	0.54	0.568	0.556	0.517	0.57	1.24	1.23	1.28	1.47	0.762	0.929	0.917	1.01
NCI-H1975	0.669	0.695	0.745	0.705	0.721	0.682	0.624	0.722	0.673	0.572	1.09	0.97	1.08	0.626	1.03	1.06	0.861	0.842
NCI-H2023	0.61	0.493	0.762	–	0.772	0.363	0.469	0.367	–	0.355	1.04	1.07	0.987	0.261	0.744	0.699	0.659	0.305
COR-L 105	0.266	0.793	0.871	–	0.881	0.656	0.69	0.649	0.619	0.678	0.672	0.892	0.783	0.501	1	1.13	1.04	0.672
NCI-H23	0.576	0.6	0.545	0.593	0.649	–	0.561	0.465	0.507	0.401	0.727	0.879	0.967	0.269	0.54	0.595	0.598	0.295
NCI-H441	0.755	0.683	0.972	0.595	0.834	0.424	0.669	0.564	–	0.693	0.56	0.633	0.554	0.403	0.461	0.486	0.557	0.353

— the supplement of paper PMC10307832
